Data published in patent publication US20200024278A1, “COMPOSITION COMPRISING ANTIBIOTIC COMPOUND AND AN HETEROCYCLIC COMPOUND AND THEIR USE IN PREVENTING OR TREATING BACTERIAL INFECTIONS” (MUTABILIS, priority 2016, published 2020).
Like-named read-outs stand apart in the source and are kept apart here.

Experiments:
Assay in all cases: MIC, broth microdilution (CLSI), substance alone or ATB combined with compound at 4 or 8 μg/mL
ECL P99 = assay type: cell-based, E. cloacae; conditions: ECL P99; for MIC: Enterobacter cloacae
Procedure, shortened: (§1)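 Per CLSI-M7-A7, MICs are determined in cation-adjusted Mueller-Hinton broth with a final inoculum of 5·10^5 CFU/mL. Plates incubate 16-20 h at 35° C in air and are read by eye. Fosfomycin assays carry 25 μg/ml glucose-6-phosphate.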

PAE 105250 = assay type: cell-based, P. aeruginosa; conditions: PAE 105250
Procedure, shortened: as §1

PAE UFR48 = assay type: cell-based, P. aeruginosa; conditions: PAE UFR48
Procedure, shortened: as §1

PAE UFR90 = assay type: cell-based, P. aeruginosa; conditions: PAE UFR90
Procedure, shortened: as §1

SAU 29213 = assay type: cell-based, S. aureus; conditions: SAU 29213
Procedure, shortened: as §1

SPN 49619 = assay type: cell-based, S. pneumoniae; conditions: SPN 49619
Procedure, shortened: as §1

[1] = Pseudomonas aeruginosa, antibiotic alone, read-out: MIC ATB alone

For CO/N=C(\C(=O)N[C@@H]1C(=O)N2C(C(=O)O)=C(COC(N)=O)CS[C@H]12)c1ccco1 [FUR, Cefuroxime, reference compound], the “MIC ATB combined with Example 9 @4 μg/ml” value (ECL P99; with Example 9 at 4 μg/ml) was <0.031 µg/mL, the “MIC ATB combined with Example 11 @8 μg/ml” value (ECL P99; with Example 11 at 8 μg/ml) was <0.031 µg/mL and the “MIC ATB combined with Example 12 @8 μg/ml” value (ECL P99; with Example 12 at 8 μg/ml) was <0.031 µg/mL. The “MIC ATB combined with Example 13 @8 μg/ml” value (ECL P99; with Example 13 at 8 μg/ml) was 16 µg/mL, the “MIC ATB combined with Example 14 @8 μg/ml” value (ECL P99; with Example 14 at 8 μg/ml) was <0.031 µg/mL and the “MIC ATB combined with Example 15 @4 μgml” value (ECL P99; with Example 15 at 4 μg/ml) was <0.031 µg/mL. The “MIC ATB combined with Example 16 @4 μg/ml” value (ECL P99; with Example 16 at 4 μg/ml) was <0.031 µg/mL, the MIC (ECL P99; antibiotic alone, read-out: MIC ATB alone) was > 512 µg/mL and the MIC (ECL P99; substance alone, read-out: MIC) was > 512 µg/mL. For the same molecule, the “MIC ATB combined with Example 1 @8 μg/ml” value (PAE 105250; with Example 1 @8 μg/ml) was <0.031 µg/mL, the “MIC ATB combined with Example 1 @8 μg/ml” value (PAE 105250; with Example 1 at 8 μg/ml) was <0.031 µg/mL and the “MIC ATB combined with Example 7 @8 μgml” value (PAE 105250; with Example 7 at 8 μg/ml) was >32 µg/mL. For the same molecule, the “MIC ATB combined with Example 9 @4 μg/ml” value (PAE 105250; with Example 9 @4 μg/ml) was >32 µg/mL, the “MIC ATB combined with Example 9 @4 μg/ml” value (PAE 105250; with Example 9 at 4 μg/ml) was >32 µg/mL and the “MIC ATB combined with Example 11 @8 μg/ml” value (PAE 105250; with Example 11 at 8 μg/ml) was >32 µg/mL. The “MIC ATB combined with Example 12 @8 μg/ml” value (PAE 105250; with Example 12 at 8 μg/ml) was >32 µg/mL, the “MIC ATB combined with Example 13 @8 μg/ml” value (PAE 105250; with Example 13 at 8 μg/ml) was >32 µg/mL and the “MIC ATB combined with Example 14 @8 μg/ml” value (PAE 105250; with Example 14 at 8 μg/ml) was >32 µg/mL. The “MIC ATB combined with Example 15 @4 μgml” value (PAE 105250; with Example 15 at 4 μg/ml) was >32 µg/mL, the “MIC ATB combined with Example 16 @4 μg/ml” value (PAE 105250; with Example 16 at 4 μg/ml) was >32 µg/mL and the MIC (PAE 105250; [1]) was > 512 µg/mL. For the same molecule, the “MIC ATB combined with Example 1 @8 μg/ml” value (PAE UFR48; with Example 1 @8 μg/ml) was <0.031 µg/mL, the “MIC ATB combined with Example 1 @8 μg/ml” value (PAE UFR48; with Example 1 at 8 μg/ml) was <0.031 µg/mL and the “MIC ATB combined with Example 7 @8 μgml” value (PAE UFR48; with Example 7 at 8 μg/ml) was >32 µg/mL. For the same molecule, the “MIC ATB combined with Example 9 @4 μg/ml” value (PAE UFR48; with Example 9 @4 μg/ml) was >32 µg/mL, the “MIC ATB combined with Example 9 @4 μg/ml” value (PAE UFR48; with Example 9 at 4 μg/ml) was >32 µg/mL and the “MIC ATB combined with Example 11 @8 μg/ml” value (PAE UFR48; with Example 11 at 8 μg/ml) was >32 µg/mL. The “MIC ATB combined with Example 12 @8 μg/ml” value (PAE UFR48; with Example 12 at 8 μg/ml) was >32 µg/mL, the “MIC ATB combined with Example 13 @8 μg/ml” value (PAE UFR48; with Example 13 at 8 μg/ml) was >32 µg/mL and the “MIC ATB combined with Example 14 @8 μg/ml” value (PAE UFR48; with Example 14 at 8 μg/ml) was >32 µg/mL. The “MIC ATB combined with Example 15 @4 μgml” value (PAE UFR48; with Example 15 at 4 μg/ml) was >32 µg/mL, the “MIC ATB combined with Example 16 @4 μg/ml” value (PAE UFR48; with Example 16 at 4 μg/ml) was >32 µg/mL and the MIC (PAE UFR48; [1]) was > 32 µg/mL. For the same molecule, the “MIC ATB combined with Example 1 @8 μg/ml” value (PAE UFR90; with Example 1 @8 μg/ml) was <0.031 µg/mL, the “MIC ATB combined with Example 1 @8 μg/ml” value (PAE UFR90; with Example 1 at 8 μg/ml) was <0.031 µg/mL and the “MIC ATB combined with Example 7 @8 μgml” value (PAE UFR90; with Example 7 at 8 μg/ml) was >32 µg/mL. The “MIC ATB combined with Example 9 @4 μg/ml” value (PAE UFR90; with Example 9 @4 μg/ml) was >32 µg/mL, the “MIC ATB combined with Example 9 @4 μg/ml” value (PAE UFR90; with Example 9 at 4 μg/ml) was >32 µg/mL and the “MIC ATB combined with Example 11 @8 μg/ml” value (PAE UFR90; with Example 11 at 8 μg/ml) was >32 µg/mL. For the same molecule, the “MIC ATB combined with Example 12 @8 μg/ml” value (PAE UFR90; with Example 12 at 8 μg/ml) was >32 µg/mL, the “MIC ATB combined with Example 13 @8 μg/ml” value (PAE UFR90; with Example 13 at 8 μg/ml) was >32 µg/mL and the “MIC ATB combined with Example 14 @8 μg/ml” value (PAE UFR90; with Example 14 at 8 μg/ml) was >32 µg/mL. For the same molecule, the “MIC ATB combined with Example 15 @4 μgml” value (PAE UFR90; with Example 15 at 4 μg/ml) was >32 µg/mL, the “MIC ATB combined with Example 16 @4 μg/ml” value (PAE UFR90; with Example 16 at 4 μg/ml) was >32 µg/mL and the MIC (PAE UFR90; [1]) was > 32 µg/mL. For the same molecule, the “MIC ATB combined with Example 1 @8 μg/ml” value (SAU 29213; with Example 1 @8 μg/ml) was 1 µg/mL, the “MIC ATB combined with Example 1 @8 μg/ml” value (SAU 29213; with Example 1 at 8 μg/ml) was 1 µg/mL and the “MIC ATB combined with Example 7 @8 μgml” value (SAU 29213; with Example 7 at 8 μg/ml) was 1 µg/mL. The “MIC ATB combined with Example 9 @4 μg/ml” value (SAU 29213; with Example 9 @4 μg/ml) was <0.031 µg/mL, the “MIC ATB combined with Example 9 @4 μg/ml” value (SAU 29213; with Example 9 at 4 μg/ml) was <0.031 µg/mL and the “MIC ATB combined with Example 11 @8 μg/ml” value (SAU 29213; with Example 11 at 8 μg/ml) was <0.031 µg/mL. For the same molecule, the “MIC ATB combined with Example 12 @8 μg/ml” value (SAU 29213; with Example 12 at 8 μg/ml) was <0.031 µg/mL, the “MIC ATB combined with Example 13 @8 μg/ml” value (SAU 29213; with Example 13 at 8 μg/ml) was 1 µg/mL and the “MIC ATB combined with Example 14 @8 μg/ml” value (SAU 29213; with Example 14 at 8 μg/ml) was <0.031 µg/mL. The “MIC ATB combined with Example 15 @4 μgml” value (SAU 29213; with Example 15 at 4 μg/ml) was <0.031 µg/mL, the “MIC ATB combined with Example 16 @4 μg/ml” value (SAU 29213; with Example 16 at 4 μg/ml) was <0.031 µg/mL and the MIC (SAU 29213; Staphylococcus aureus, antibiotic alone, read-out: MIC ATB alone) was 2 µg/mL. For the same molecule, the “MIC ATB combined with Example 1 @8 μg/ml” value (SPN 49619; with Example 1 @8 μg/ml) was 0.25 µg/mL, the “MIC ATB combined with Example 1 @8 μg/ml” value (SPN 49619; with Example 1 at 8 μg/ml) was 0.25 µg/mL and the “MIC ATB combined with Example 7 @8 μgml” value (SPN 49619; with Example 7 at 8 μg/ml) was 0.25 µg/mL. The “MIC ATB combined with Example 9 @4 μg/ml” value (SPN 49619; with Example 9 @4 μg/ml) was “<=0.031 μg/mL”, the “MIC ATB combined with Example 9 @4 μg/ml” value (SPN 49619; with Example 9 at 4 μg/ml) was “<=0.031 μg/mL” and the “MIC ATB combined with Example 11 @8 μg/ml” value (SPN 49619; with Example 11 at 8 μg/ml) was 0.063 µg/mL. The “MIC ATB combined with Example 12 @8 μg/ml” value (SPN 49619; with Example 12 at 8 μg/ml) was <0.031 µg/mL, the “MIC ATB combined with Example 13 @8 μg/ml” value (SPN 49619; with Example 13 at 8 μg/ml) was 0.25 µg/mL and the “MIC ATB combined with Example 14 @8 μg/ml” value (SPN 49619; with Example 14 at 8 μg/ml) was <0.031 µg/mL. The “MIC ATB combined with Example 15 @4 μgml” value (SPN 49619; with Example 15 at 4 μg/ml) was <0.031 µg/mL, the “MIC ATB combined with Example 16 @4 μg/ml” value (SPN 49619; with Example 16 at 4 μg/ml) was <0.031 µg/mL and the MIC (SPN 49619; Streptococcus pneumoniae, antibiotic alone, read-out: MIC ATB alone) was 0.25 µg/mL.
